{"source": "PubChem BioAssay AID623935", "about": "(Southern Research Specialized Biocontainment Screening …, 2012)", "system": "Chikungunya virus infected cells, antiviral inhibition", "assay": "Chikungunya virus antiviral inhibition, dose response, cell-based, secondary assay (AID 623935)", "note": "Calls of active or inactive are those of the source. How the calls were made is not given here.", "data": [{"smiles": "CN(C(=O)Cc1cccs1)c1nc2c(s1)CCCC2", "values": [{"measurement": "IC50", "value": 3.16, "unit": "µM"}]}, {"smiles": "CCN1CCN(Cc2nc3ccc([N+](=O)[O-])cc3c(=O)n2-c2ccccc2F)CC1", "values": [{"measurement": "IC50", "value": "> 100 µM (inactive)"}]}]}
